Results on 4 compounds are retold here after patent US20240024494A1, “SMALL-MOLECULE CONJUGATE AND USE THEREOF” (SHANGHAI MEWSGEN BIOTECHNOLOGY CO., LTD, priority 2020, published 2024).

Experiment in all cases: Tumor cell proliferation inhibition test, CCK-8 method (Example 21)
What all share (type): cell-based

The subject of assay [1] is MGC803 (human gastric cancer cells). As to the method: (§1) A part of the compounds prepared in the examples of the present disclosure were subjected to a tumor cell proliferation inhibition test by using a CCK-8 method. Cell lines HCT116 (human colon cancer cells), MGC803 (human gastric cancer cells), and MIA PACA-2 (human pancreatic cancer cells) were purchased from Shanghai Meixuan Technology Co., Ltd. Samples (a part of the compounds prepared in the examples) were dissolved in DMSO (Merck), prepared into a concentration of 10 mM, and finally triply diluted in DMEM or McCoy's 5A 1640 medium to 8 concentration gradients. A cell culture solution was collected when a cell culture met a test requirement, 10 μL of the cell culture solution was uniformly coated on a cell counting plate, cells were counted for 3 times under a microscope, and a cell density was calculated by taking an average value; and a 96-well plate (Corning, #3599) was taken, 200 μL of the cell culture solution was added into each well for cell inoculation at a cell concentration of 6×10^3 cells per well, and the inoculated 96-well plate was incubated in a cell incubator containing 5% CO2 at 37° C. for 24 h. An old culture medium was removed by suction, 200 μL of the triply diluted sample DMEM or McCoy's 5A 1640 medium at an initial concentration of 10 μmol/L was added to each well, the DMSO content was controlled to be 1%, three duplicate wells were set, PBS was used as a blank control, and the plate was incubated in the incubator for 72 h. The original DMEM or McCoy's 5A 1640 medium in the 96-well plate and a PBS buffer in a final row were sucked out, a prepared CCK-8 solution (90% DMEM or McCoy's 5A 1640 medium+10% CCK-8) was added, the mixture was incubated in an incubator, and an absorbance was read by using a Biotek microplate reader. Cell growth inhibition rate IC %=(blank control well OD value−administration well OD value)/blank control well OD value×100%.

Assay [2] concerns HCT116 (human colon cancer cells). As to the method:
as §1

Assay [3] relates to MIA PACA-2 (human pancreatic cancer cells). The method, then: as §1
[4] abbreviates: CCK-8, 72 h, Table 3, read-out: IC50 MGC803.
Where [5] appears, read: CCK-8, 72 h, Table 3, read-out: IC50 HCT116.
Setting [6] is: CCK-8, 72 h, Table 3, read-out: IC50 MIA PACA-2.

Broadly, the IC50 is the concentration that gives 50% inhibition.

Where two headings read alike, the source gives them in different places.

Consider `COc1cc(C(=O)NCCOCCOCCOCCC(=O)N[C@H](C(=O)N[C@@H](CCCNC(N)=O)C(=O)Nc2ccc(COC(=O)N3CCC(NC(=O)O[C@H]4CC[C@]5(C)C6CC[C@]7(C)[C@@H](c8ccc(=O)oc8)CC[C@]7(O)C6CC[C@@H]5C4)CC3)cc2)C(C)C)ccc1NC(=O)[C@@H]1N[C@@H](CC(C)(C)C)[C@](C#N)(c2ccc(Cl)cc2F)[C@H]1c1cccc(Cl)c1F` (stereo partly drawn) [Compound I-5], for which the IC50 in assay [1] (setting [4]) was 116 nM; in assay [2] (setting [5]), 236 nM; in assay [3] (setting [6]) it was 442 nM.

With `COc1cc(C(=O)NCCOCCOCCOCCOCCOCCOCCC(=O)N[C@@H](C(=O)N[C@@H](CCCNC(N)=O)C(=O)Nc2ccc(COC(=O)N3CCC(NC(=O)O[C@H]4CC[C@]5(C)C6CC[C@]7(C)C(c8ccc(=O)oc8)CC[C@]7(O)C6CC[C@@H]5C4)CC3)cc2)C(C)C)ccc1NC(=O)[C@@H]1N[C@@H](CC(C)(C)C)[C@](C#N)(c2ccc(Cl)cc2F)[C@H]1c1cccc(Cl)c1F` (stereo partly drawn) [Compound I-7], the IC50 in assay [1] (setting [4]) was 292 nM; in assay [2] (setting [5]) it was 1290 nM; in assay [3] (setting [6]) it was 3530 nM.

With `COc1cc(C(=O)NCCOCCOCCOCCOCCC(=O)N[C@H](C(=O)N[C@@H](C)C(=O)Nc2ccc(COC(=O)N3CCN(C(=O)O[C@H]4CC[C@@]5(C)[C@H](CC[C@@H]6[C@@H]5[C@H](O)C(=O)[C@]5(C)[C@@H](c7ccc(=O)oc7)CC[C@]65O)C4)CC3)cc2)C(C)C)ccc1NC(=O)[C@@H]1N[C@@H](CC(C)(C)C)[C@](C#N)(c2ccc(Cl)cc2F)[C@H]1c1cccc(Cl)c1F` [Compound I-10], the IC50 in assay [1] (setting [4]) came out at 307 nM; in assay [2] (setting [5]), 395 nM; in assay [3] (setting [6]), 443 nM.

As to `COc1cc(C(=O)NCCOCCOCCOCCOCCC(=O)N[C@@H](CCSC)C(=O)N[C@@H](CCCNC(N)=O)C(=O)Nc2ccc(COC(=O)O[C@@H](C(=O)O[C@H]3C[C@@]4(O)[C@@H](OC(=O)c5ccccc5)C5[C@](C)(C(=O)[C@H](OC(C)=O)C(=C3C)C4(C)C)[C@@H](O)C[C@H]3OC[C@@]53OC(C)=O)[C@@H](NC(=O)c3ccccc3)c3ccccc3)cc2)ccc1NC(=O)[C@@H]1N[C@@H](CC(C)(C)C)[C@](C#N)(c2ccc(Cl)cc2F)[C@H]1c1cccc(Cl)c1F` (stereo partly drawn) [Compound I-12], the values for the IC50 in assay [1] (72 h), in assay [2] (72 h) and in assay [3] (72 h) were 626 nM, 5260 nM and 542 nM, respectively.
